Results: patent publication US10168342B2, “Lipid probes and uses thereof” (THE SCRIPPS RESEARCH INSTITUTE, priority 2015, dated 2019)
Like-named read-outs stand apart in the source and are kept apart here.

Legend:
[1] = target: T1, AEA-DA lipid probe targets in Neuro2a cells (Mus musculus, UniProt Q61263)
T1 sequence (Q61263 1-540): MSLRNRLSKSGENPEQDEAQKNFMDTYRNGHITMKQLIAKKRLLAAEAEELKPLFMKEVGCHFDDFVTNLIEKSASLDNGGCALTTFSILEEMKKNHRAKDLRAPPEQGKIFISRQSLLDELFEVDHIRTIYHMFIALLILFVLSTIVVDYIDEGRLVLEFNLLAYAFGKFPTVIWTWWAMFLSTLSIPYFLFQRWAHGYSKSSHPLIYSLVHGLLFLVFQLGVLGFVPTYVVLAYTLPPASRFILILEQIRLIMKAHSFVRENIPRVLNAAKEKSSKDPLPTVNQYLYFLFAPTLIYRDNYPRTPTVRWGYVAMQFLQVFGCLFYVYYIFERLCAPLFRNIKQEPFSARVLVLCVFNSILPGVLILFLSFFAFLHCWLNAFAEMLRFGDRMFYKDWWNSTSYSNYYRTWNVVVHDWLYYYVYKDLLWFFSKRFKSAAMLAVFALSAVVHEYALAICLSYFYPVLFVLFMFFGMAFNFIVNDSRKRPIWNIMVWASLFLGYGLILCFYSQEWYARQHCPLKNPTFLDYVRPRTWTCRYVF

[2] = target: T2, AEA-DA lipid probe targets in Neuro2a cells (Mus musculus, UniProt Q99JY4); details: for SILAC ratio, TRABD (Q99JY4): Neuro2a cells, AEA-DA probe
T2 sequence (Q99JY4 1-376): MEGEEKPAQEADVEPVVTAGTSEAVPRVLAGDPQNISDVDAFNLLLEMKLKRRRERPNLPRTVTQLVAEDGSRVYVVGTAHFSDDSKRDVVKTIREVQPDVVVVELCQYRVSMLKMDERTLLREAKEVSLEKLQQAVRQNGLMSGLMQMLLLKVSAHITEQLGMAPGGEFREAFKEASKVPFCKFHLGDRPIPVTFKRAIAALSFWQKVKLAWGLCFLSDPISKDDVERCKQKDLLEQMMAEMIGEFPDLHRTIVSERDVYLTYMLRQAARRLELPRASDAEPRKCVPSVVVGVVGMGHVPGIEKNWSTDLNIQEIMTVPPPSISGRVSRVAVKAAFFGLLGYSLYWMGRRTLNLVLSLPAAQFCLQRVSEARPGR

[3] = target: T3, AEA-DA lipid probe targets in Neuro2a cells (Mus musculus, UniProt P55096)
T3 sequence (P55096 1-659): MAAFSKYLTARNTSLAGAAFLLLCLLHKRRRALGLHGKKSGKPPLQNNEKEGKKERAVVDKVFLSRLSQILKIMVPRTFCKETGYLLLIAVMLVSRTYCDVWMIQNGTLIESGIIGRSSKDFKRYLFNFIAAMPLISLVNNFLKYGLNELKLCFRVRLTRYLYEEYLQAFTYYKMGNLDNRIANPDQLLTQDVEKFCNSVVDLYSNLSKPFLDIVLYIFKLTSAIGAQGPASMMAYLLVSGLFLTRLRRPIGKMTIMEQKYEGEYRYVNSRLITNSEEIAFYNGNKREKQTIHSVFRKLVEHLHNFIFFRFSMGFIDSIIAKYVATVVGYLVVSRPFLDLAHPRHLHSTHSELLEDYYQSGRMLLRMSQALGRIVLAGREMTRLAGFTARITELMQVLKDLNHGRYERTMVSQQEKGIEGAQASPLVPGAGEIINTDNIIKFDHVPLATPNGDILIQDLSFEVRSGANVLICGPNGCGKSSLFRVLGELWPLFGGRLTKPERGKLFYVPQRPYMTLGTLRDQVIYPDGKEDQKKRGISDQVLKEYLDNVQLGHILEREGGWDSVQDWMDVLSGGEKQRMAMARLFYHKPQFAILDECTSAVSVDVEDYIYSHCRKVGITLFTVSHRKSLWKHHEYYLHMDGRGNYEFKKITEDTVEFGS

[4] = target: T4, AEA-DA lipid probe targets in Neuro2a cells (Mus musculus, UniProt Q7TMK9)
T4 sequence (Q7TMK9 1-623): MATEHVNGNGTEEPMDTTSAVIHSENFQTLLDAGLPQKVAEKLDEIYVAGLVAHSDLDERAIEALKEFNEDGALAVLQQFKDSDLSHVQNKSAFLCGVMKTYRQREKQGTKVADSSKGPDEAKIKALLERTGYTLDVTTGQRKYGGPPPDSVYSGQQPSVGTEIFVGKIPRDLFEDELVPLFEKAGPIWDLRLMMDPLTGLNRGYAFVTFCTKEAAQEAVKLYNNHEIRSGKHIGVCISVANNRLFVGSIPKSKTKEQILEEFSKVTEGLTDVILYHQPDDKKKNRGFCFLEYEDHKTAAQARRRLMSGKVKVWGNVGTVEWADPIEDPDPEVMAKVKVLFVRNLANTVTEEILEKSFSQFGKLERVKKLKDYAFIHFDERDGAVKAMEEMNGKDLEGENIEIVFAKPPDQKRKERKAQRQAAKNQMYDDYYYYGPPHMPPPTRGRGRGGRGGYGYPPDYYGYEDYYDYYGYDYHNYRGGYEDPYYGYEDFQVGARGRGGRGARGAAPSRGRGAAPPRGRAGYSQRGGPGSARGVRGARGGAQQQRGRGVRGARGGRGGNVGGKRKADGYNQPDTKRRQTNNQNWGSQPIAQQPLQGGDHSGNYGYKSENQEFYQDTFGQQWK

[5] = target: AEA-DA lipid probe targets in Neuro2a cells (Mus musculus, UniProt Q9EPE9)
AEA-DA lipid probe targets in Neuro2a cells (Mus musculus, UniProt Q9EPE9), sequence (Q9EPE9 whole entry): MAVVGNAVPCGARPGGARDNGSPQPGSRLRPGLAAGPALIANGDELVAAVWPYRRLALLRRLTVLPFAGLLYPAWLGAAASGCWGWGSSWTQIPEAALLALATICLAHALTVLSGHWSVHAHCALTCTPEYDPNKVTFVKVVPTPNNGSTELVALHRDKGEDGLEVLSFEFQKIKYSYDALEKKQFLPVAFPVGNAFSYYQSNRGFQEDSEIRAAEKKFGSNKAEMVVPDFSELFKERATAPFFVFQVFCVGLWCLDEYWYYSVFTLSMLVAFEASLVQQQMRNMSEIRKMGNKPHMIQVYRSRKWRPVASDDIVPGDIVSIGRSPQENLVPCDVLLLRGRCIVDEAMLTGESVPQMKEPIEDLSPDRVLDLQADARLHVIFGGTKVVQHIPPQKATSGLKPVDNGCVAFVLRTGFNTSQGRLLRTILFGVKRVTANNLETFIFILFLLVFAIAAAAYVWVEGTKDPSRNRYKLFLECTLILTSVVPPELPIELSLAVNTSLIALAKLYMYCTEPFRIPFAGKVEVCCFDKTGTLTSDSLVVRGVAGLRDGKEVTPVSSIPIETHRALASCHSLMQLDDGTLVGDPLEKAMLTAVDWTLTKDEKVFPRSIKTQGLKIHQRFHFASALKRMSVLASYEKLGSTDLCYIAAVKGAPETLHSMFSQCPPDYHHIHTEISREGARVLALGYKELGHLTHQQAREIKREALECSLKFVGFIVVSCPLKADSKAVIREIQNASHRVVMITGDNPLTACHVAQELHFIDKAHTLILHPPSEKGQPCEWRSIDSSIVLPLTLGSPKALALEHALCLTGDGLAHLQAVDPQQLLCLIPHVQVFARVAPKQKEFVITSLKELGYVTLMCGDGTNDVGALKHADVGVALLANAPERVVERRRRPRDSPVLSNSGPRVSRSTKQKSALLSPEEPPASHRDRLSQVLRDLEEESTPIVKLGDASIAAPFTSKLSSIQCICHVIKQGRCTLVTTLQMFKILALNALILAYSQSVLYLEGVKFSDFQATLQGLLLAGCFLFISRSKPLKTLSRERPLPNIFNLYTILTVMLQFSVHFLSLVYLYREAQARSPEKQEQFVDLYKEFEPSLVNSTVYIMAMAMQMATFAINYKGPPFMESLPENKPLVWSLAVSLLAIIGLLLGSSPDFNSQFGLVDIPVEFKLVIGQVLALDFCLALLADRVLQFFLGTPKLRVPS

Compound	SILAC ratio, Soat1 ([1]; competitor 25 μM)	SILAC ratio, TRABD (Q99JY4) ([2]; competitor 25 μM)	SILAC ratio, Trabd ([2]; competitor 25 μM)	SILAC ratio Abcd3 ([3]; competitor 25 μM)	SILAC ratio Syncrip ([4]; competitor 25 μM)	SILAC ratio Atp13a1 ([5]; competitor 25 μM)	further results
O=C(/C=C/c1cccnc1)NCCCCC1CCN(C(=O)c2ccccc2)CC1 [FK-866, reference compound]	2.3	1.2	1.2	1.3	1.1	1.1	–
CCCCC/C=C\C/C=C\C/C=C\C/C=C\CCCC(=O)NCCO [AEA, anandamide, reference compound]	–	–	–	–	–	–	SILAC ratio, TRABD (Q99JY4) ([2]; competitor 200 μM): 1.0; SILAC ratio, Trabd ([2]; competitor 200 μM): 1.0; SILAC ratio Abcd3 ([3]; competitor 200 μM): 1.5; SILAC ratio Syncrip ([4]; competitor 200 μM): 1.2; SILAC ratio Atp13a1 ([5]; competitor 200 μM): 1.4
CN1CCN(C(=O)c2c(-c3ccccc3)c3cc([N+](=O)[O-])ccc3n2C)CC1 [KML110, (1-Methyl-5-nitro-3-phenyl-1H-indol-2-yl)(4-methylpiperazin-1-yl)methanone]	–	–	1.5	1.2	1.4	1.7	–
C=CCN(C)CCCCCCOc1ccc(C(=O)c2ccc(Br)cc2)c(F)c1 [Ro 48-8071, reference compound]	1.8	1.0	1.0	0.9	0.8	1.2	–
CN1CCN(C(=O)c2[nH]c3ccc([N+](=O)[O-])cc3c2-c2ccccc2)CC1 [MJN228, (4-Methylpiperazin-1-yl)(5-nitro-3-phenyl-1H-indol-2-yl)methanone]	2.6	1.3	1.3	1.5	1.2	1.7	SILAC ratio, Soat1 ([1]; competitor 10 μM): 1.2; SILAC ratio, Trabd ([2]; competitor 10 μM): 1.1; SILAC ratio, Trabd ([2]; competitor 50 μM): 1.4; SILAC ratio, Trabd ([2]; competitor 100 μM): 1.7; SILAC ratio Abcd3 ([3]; competitor 10 μM): 1.2; SILAC ratio Abcd3 ([3]; competitor 50 μM): 1.3; SILAC ratio Abcd3 ([3]; competitor 100 μM): 1.2; SILAC ratio Syncrip ([4]; competitor 10 μM): 0.9; SILAC ratio Syncrip ([4]; competitor 50 μM): 1.3; SILAC ratio Syncrip ([4]; competitor 100 μM): 1.1; SILAC ratio Atp13a1 ([5]; competitor 10 μM): 1.3; SILAC ratio Atp13a1 ([5]; competitor 50 μM): 2.0; SILAC ratio Atp13a1 ([5]; competitor 100 μM): 2.2
